Key:
[1] = biological target: T1, angiotensin I converting enzyme (Cavia porcellus, UniProt H0UWL7); assay: Inhibitory effect on angiotensin I-induced constriction in isolated guinea pig ileum (indirect inhibition of angiotensin I converting enzyme); type: cell-based; conditions: angiotensin I 10^-8 M, 37° C.
T1 construct: isolated guinea pig ileum preparation; from tissue; host or cells: isolated guinea pig ileum
T1 sequence (H0UWL7 33-1302): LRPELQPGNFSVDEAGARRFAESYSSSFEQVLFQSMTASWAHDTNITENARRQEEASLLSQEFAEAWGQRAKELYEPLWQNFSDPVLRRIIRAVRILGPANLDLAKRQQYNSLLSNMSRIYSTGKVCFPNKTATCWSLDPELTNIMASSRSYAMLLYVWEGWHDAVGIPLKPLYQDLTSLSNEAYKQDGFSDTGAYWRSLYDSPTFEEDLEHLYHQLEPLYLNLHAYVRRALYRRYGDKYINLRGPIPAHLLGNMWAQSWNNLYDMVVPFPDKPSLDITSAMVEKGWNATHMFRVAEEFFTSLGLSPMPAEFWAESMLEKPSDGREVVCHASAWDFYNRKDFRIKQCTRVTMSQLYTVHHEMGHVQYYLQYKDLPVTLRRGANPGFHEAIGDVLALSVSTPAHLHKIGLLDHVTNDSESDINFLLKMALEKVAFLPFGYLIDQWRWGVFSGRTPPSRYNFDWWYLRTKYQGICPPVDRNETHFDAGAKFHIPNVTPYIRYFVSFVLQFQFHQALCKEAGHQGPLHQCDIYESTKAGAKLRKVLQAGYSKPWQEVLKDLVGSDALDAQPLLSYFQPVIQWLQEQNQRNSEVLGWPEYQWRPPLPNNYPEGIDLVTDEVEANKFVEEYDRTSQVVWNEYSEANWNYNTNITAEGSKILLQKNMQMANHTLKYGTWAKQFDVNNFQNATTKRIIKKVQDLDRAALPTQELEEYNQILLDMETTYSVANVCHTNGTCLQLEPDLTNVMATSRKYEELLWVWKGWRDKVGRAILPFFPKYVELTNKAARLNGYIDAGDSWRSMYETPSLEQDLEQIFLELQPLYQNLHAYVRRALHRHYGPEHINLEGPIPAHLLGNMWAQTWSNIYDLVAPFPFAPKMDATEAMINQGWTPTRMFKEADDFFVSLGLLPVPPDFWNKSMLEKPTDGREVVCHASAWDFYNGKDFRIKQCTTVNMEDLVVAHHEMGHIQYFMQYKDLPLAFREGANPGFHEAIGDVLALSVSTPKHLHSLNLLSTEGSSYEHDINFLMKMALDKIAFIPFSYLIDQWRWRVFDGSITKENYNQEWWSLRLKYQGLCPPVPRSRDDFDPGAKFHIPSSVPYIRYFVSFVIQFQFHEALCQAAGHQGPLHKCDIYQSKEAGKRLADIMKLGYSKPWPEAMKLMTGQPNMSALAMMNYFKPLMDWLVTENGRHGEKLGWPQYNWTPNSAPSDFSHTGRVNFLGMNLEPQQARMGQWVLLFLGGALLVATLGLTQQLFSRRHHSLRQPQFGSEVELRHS
Source text: Experiment 1: Inhibitory effect on angiotensin I-induced constriction in isolated guinea pig ileum
According to the method of Goldberg et al (J. Pharmacol. Exp. Ther., vol. 204, No. 2, p. 271, 1977), the inhibitory effect on angiotensin I converting enzyme was indirectly examined as an antagonistic activity on angiotensin I-induced constriction in isolated guinea pig ileum preparation. Guinea pig ileum preparations, in the presence of 1 g load, were suspended in Magnus bath filled with Kreb's solution containing atropine and maintained at 37° C. by warming, and then bubbled with a mixed gas (95%O2 +5%CO2). Angiotensin I (10^-8 M)-induced constrictions were measured with a recorder through a force displacement transducer (Nippon Denki San-ei, 45169A). Inhibitory rates of the test compounds were indicated on a graph and the rate of 50% inhibition (IC50) was calculated.

[2] = system: angiotensin I-induced pressor response; assay: Effect on angiotensin I-induced pressor response in rats; type: in vivo, Wistar male rats; conditions: 10 mg/kg, p.o.; for Inhibitory rate (%) of pressor response to angiotensin I at each hour: angiotensin I 300 ng/kg i.v., mean value±standard error
Protocol: Experiment 2: Effect on angiotensin I-induced pressor response in rats
Groups of 10 Wistar male rats weighing about 200 g were implanted with a catheter into the left carotid artery and femoral vein under ether anesthesia. More than 24 hours after operation, mean blood pressure was measured from the carotid artery with a pressure transducer (Nippon Denki San-ei, 142 type). Angiotensin I (300 ng/kg) was injected to the left femoral vein through catheter to induce pressor response. Then 10 mg/kg of the test compounds, suspended in 0.5% methylcellulose solution, were given orally. At every hour between 1 to 10 hours, and 24 hours after the administration, the pressor response was examined by the injection of angiotensin I. The inhibitory rate (%) against the pressor responses was determined and the results were summarized in Table 1. The values in the Table represent "mean value±standard error".

| SMILES | IC50 [1] | Inhibitory rate (%) of pressor response to angiotensin I at each hour ([2]; 1 hour) | Inhibitory rate (%) of pressor response to angiotensin I at each hour ([2]; 2 hours) | Inhibitory rate (%) of pressor response to angiotensin I at each hour ([2]; 3 hours) | Inhibitory rate (%) of pressor response to angiotensin I at each hour ([2]; 4 hours) | Inhibitory rate (%) of pressor response to angiotensin I at each hour ([2]; 5 hours) | Inhibitory rate (%) of pressor response to angiotensin I at each hour ([2]; 6 hours) | Inhibitory rate (%) of pressor response to angiotensin I at each hour ([2]; 7 hours) | Inhibitory rate (%) of pressor response to angiotensin I at each hour ([2]; 8 hours) | Inhibitory rate (%) of pressor response to angiotensin I at each hour ([2]; 9 hours) | Inhibitory rate (%) of pressor response to angiotensin I at each hour ([2]; 10 hours) | Inhibitory rate (%) of pressor response to angiotensin I at each hour ([2]; 24 hours) | inhibitory action against the angiotensin I-induced pressor response, strength and duration vs CV-5975 ([2]; rats, comparison in words) |
| --- | --- | --- | --- | --- | --- | --- | --- | --- | --- | --- | --- | --- | --- |
| O=C(O)CN1C(=O)[C@@H](N[C@@H](CCCCC2CCNCC2)C(=O)O)CSc2ccccc21 [CV-5975, 3(R)-[1(S)-carboxy-5-(4-piperidyl)pentyl]amino-4-oxo-2,3,4,5-tetrahydro-1,5-benzothiazepine-5-acetic acid, reference compound] | 3.5 nM | -95 ± 3% | -95 ± 3% | -89 ± 7% | -85 ± 7% | -82 ± 8% | -89 ± 6% | -86 ± 6% | -80 ± 7% | -84 ± 7% | -75 ± 9% | -45 ± 10% |  |
| O.O=C(O)CN1C(=O)C(N[C@@H](CSCCC2CCNCC2)C(=O)O)CCc2ccccc21 (stereo partly drawn) [Example 7, 3-[1(R)-carboxy-2-{2-(4-piperidyl)ethylthio}ethyl]amino-2-oxo-2,3,4,5-tetrahydro-1H-1-benzazepine-1-acetic acid monohydrate] | 1.6 nM | -96 ± 2% | -100 ± 0% | -94 ± 5% | -97 ± 3% | -100 ± 0% | -100 ± 0% | -100 ± 0% | -98 ± 2% | -100 ± 0% | -90 ± 6% | -77 ± 10% | exhibits stronger inhibitory action against the angiotensin I-induced pressor response and more long-lasting effect than C-5975 |
